A short description of data set [1]: Atropisomer equilibrium in solution by 1H NMR and LC-MS. In kind it is physicochemical. The following applies: ambient temperature, after 24 hours. The method, then:
In aqueous solutions, 8-9% of atropisomer 2 (minor atropisomer) is detected by ^1H NMR and LC-MS in equilibrium with atropisomer 1 (major atropisomer) at ambient temperature after 24 hours. In organic solvents, at ambient temperature after 24 hours, approximately 1-2% of atropisomer 2 is detected by ^1H NMR and LC-MS in equilibrium with atropisomer 1. Although detectable by ^1H NMR and LC-MS analysis, atropisomer 2 is not isolable.

The subject of data set [2] is human colon carcinoma (EL 1986). The data set is described as follows: Tumor growth inhibition, patient-derived tumor model EL1986. In kind it is in vivo. The following applies: EL1986 in mice, oral 8 mg/kg, (Mon, Wed, Fri)x5; p <0.0001. On the procedure:
(§1) To evaluate in vivo efficacy and effect of 4,4,4-Trifluoro-N-[(1S)-2-[[(7S)-5-(2-hydroxyethyl)-6-oxo-7H-pyrido[2,3-d][3]benzazepin-7-yl]amino]-1-methyl-2-oxo-ethyl]butanamide on inhibition of Notch processing pharmacodynamics (PD), several cell lines- and patient-derived xenograft models are used. A2780 is a human ovarian cell line (Sigma-Aldrich, No. 93112519); SW480 is a human colorectal cell line (ATCC No. CCL-228); HCT 116 is a human colorectal cell line (ATCC No. CCL-247); U-87 MG is a human glioblastoma cell line (ATCC No. HTB-14); A375 is a human malignant melanoma cell line (ATCC No. CRL-1619); K-562 is a human chronic myelogenous leukemia (CML) cell line characterized by the presence of a fusion transcript comprised of the Bcr and Abl1 genes (ATCC No. CCL-243); Jurkat; HEL 92.1.7 is a human erythroleukemia cell line (ATCC No. TIB-180). […] Tumor growth and body weight are monitored over time to evaluate efficacy and signs of toxicity. Bidimensional measurements of tumors are performed twice a week and tumor volumes are calculated based on the following formula: (Tumor Volume)=[(L)×(W2)×(Π/6)] where L is mid-axis length and W is mid-axis width. […] The log volume data are analyzed with a two-way repeated measures analysis of variance by time and treatment using the MIXED™ procedures in SAS™ software (version 8.2). […]

Data set [3] relates to human colon carcinoma (EL1989). As to the kind of experiment: Tumor growth inhibition, patient-derived tumor model EL1989. To be noted: EL1989 in mice, oral 10 mg/kg (Q2Dx7), 11-days OFF, 8 mg/kg (Mon, Wed, Fri)x3; p <0.0001. In kind it is in vivo. On the procedure: as §1

`C[C@H](NC(=O)CCC(F)(F)F)C(=O)N[C@@H]1C(=O)N(CCO)c2ncccc2-c2ccccc21` [Compound 1, 4,4,4-trifluoro-N-[(1S)-2-[[(7S)-5-(2-hydroxyethyl)-6-oxo-7H-pyrido[2,3-d][3]benzazepin-7-yl]amino]-1-methyl-2-oxo-ethyl]butanamide]: the “atropisomer 2 (minor atropisomer) in equilibrium with atropisomer 1” value in data set [1] (aqueous solutions) is 8-9%; in data set [1] (organic solvents) it was 1-2%. Further, the “% TGI” value in data set [2] was 62.00 (<0.0001) %; in data set [3] it was 70.42 (<0.0001) %.

The values are drawn from patent publication US20190209581A1, “DOSAGE REGIMEN FOR TREATMENT OF SOLID TUMORS” (Eli Lilly and Company, priority 2016, published 2019).
